Consider eight compounds from patent publication US20230227466A1, “SUBSTITUTED THIENOPYRIMIDINES THAT INTERACT WITH THE RAS SUPERFAMILY FOR THE TREATMENT OF CANCERS, INFLAMMATORY DISEASES, RASOPATHIES, AND FIBROTIC DISEASE” (SHY Therapeutics, LLC, priority 2020, published 2023).

Read-outs that look alike come from different tables or passages of the source.

Broadly, the IC50 is the concentration needed to halve the response being measured. In general, kinetic solubility refers to the concentration staying in solution when a stock, usually in DMSO, is diluted into the medium.

One series addresses T1, KRas G12C mutant (Homo sapiens, UniProt P01116, G12C).
T1 construct: made in house
Put plainly: Ras GTP binding domain inhibition assay (labeled-GTP competition, cell-free). An outline of the steps:
(§1)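 His-tagged protein immobilized on Ni-coated wells overnight at 4 °C. Compounds (20 μM single point or serial dilution for IC50) incubated 3 h at RT, ± Sos (residues 556-1049, 10-30 μg/mL) during the final hour. Cy3- or Cy5-GTP (100 nM) then added for 45 min; bound label read by fluorescence after washing.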

Another series deals with T2, KRas G12D mutant (Homo sapiens, UniProt P01116, G12D).
T2 construct: made in house
Described as above. The method in brief: as §1

The target of another series is T3, KRas Q61H mutant (Homo sapiens, UniProt P01116, Q61H).
T3 construct: made in house
The series is described as above. An outline of the steps: as §1

Series [1] deals with MIA-PaCa-2 pancreatic cancer cell line (KRAS G12C). Description: Cell proliferation assay (CellTiter 96 Aqueous One). In kind it is cell-based. The following applies: Homo sapiens; for inhibition at 10 µM: MIA PaCa-2, read-out: % inh cell proliferation (10 μM) in MIA PaCa-2. The method in brief: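 Percent inhibition of proliferation is derived from MTS absorbance data. Cells seeded at 2000–5000 per well were grown overnight before treatment. Compounds, at 10 μM final or in dilution series, stayed on cells for 2–4 days in medium containing 10% FBS and 0.3% DMSO.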

Another series in a line: Kinetic solubility assay. The following applies: phosphate-buffered saline pH 7.4 with 2% DMSO, aqueous buffer, kinetic from dmso stock; pH 7.4 PBS + 2% DMSO, 25° C., two hours; effective range approximately 2-400 μM. It is filed as physicochemical. On the procedure: Equipment: Water purification system Millipore Milli-Q Gradient A10 (Millipore, France); Thermomixer R Block, 1.5 ml (Eppendorf, Germany; Cat #5355); Matrix Multichannel Electronic Pipette 2-125 μL, 5-250 μL, 15-1250 μL (Thermo Scientific, USA; Cat ##2011, 2012, 2004); SpectraMax Plus Microplate Reader (Molecular Devices, USA; Product #02196); Multi-Well Plate Vacuum Manifold (Pall Corporation, USA; Product #5014); and Vacuum pump (Millipore, USA; Model #XX5500000)
Analytical System: The measurements were performed using SpectraMax Plus reader in UV-Vis mode. Acquisition and analysis of the data were performed using SoftMax Pro v.5.4 (Molecular Devices) and Excel 2010 data analysis software.
Methods: Briefly, using a 20 mM stock solution of the compound in 100% DMSO dilutions were prepared to a theoretical concentration of 400 μM in duplicates in phosphate-buffered saline pH 7.4 (138 mM NaCl, 2.7 mM KCl, 10 mM K-phosphate) with 2% final DMSO. The experimental compound dilutions in PBS were further allowed to equilibrate at 25° C. on a thermostatic shaker for two hours and then filtered through HTS filter plates using a vacuum manifold. The filtrates of test compounds were diluted 2-fold with acetonitrile with 2% DMSO before measuring.
In parallel, compound dilutions in acetonitrile/PBS (1:1) were prepared to theoretical concentrations of 0 μM (blank), 10 μM, 25 μM, 50 μM, 100 μM, and 200 μM with 2% final DMSO to generate calibration curves. Ondansetron was used as reference compound to control proper assay performance. 200 μL of each sample was transferred to 96-well plate and measured in 200-550 nm range with 5 nm step.
The concentrations of compounds in PBS filtrate are calculated using a dedicated Microsoft Excel calculation script. Proper absorbance wavelengths for calculations are selected for each compound manually based on absorbance maximums (absolute absorbance unit values for the minimum and maximum concentration points within 0-3 OD range). Each of the final datasets is additionally visually evaluated by the operator and goodness of fit (R2) is calculated for each calibration curve. […] This method is not suitable for liquid (at 25° C.) substances (were not present among the tested compounds). Table 3A provides the kinetic solubility for some of the exemplified compounds.

The mark [2] stands for this setting: with SOS, read-out: KRas G12C mutant + SOS: % inh.
Where [3] appears, read: without SOS, read-out: KRas G12C mutant: % inh.
[4] abbreviates: with SOS, read-out: KRas G12D mutant + SOS: % inh.
The mark [5] stands for this setting: without SOS, read-out: KRas G12D mutant: % inh.
Setting [6] is: with SOS, read-out: KRas Q61H mutant + SOS: % inh.
Setting [7] is: without SOS, read-out: KRas Q61H mutant: % inh.
The mark [8] stands for this setting: MIA PaCa-2, MIA-PaCa-2, 2-4 days, 10% FBS.

Take `COCC1CCN(c2nc(-c3nccn3C)nc3sc(-c4ccn(C(C)C)n4)c(C)c23)C1` (racemic) [Compound 38, rac-6-(1-Isopropyl-1H-pyrazol-3-yl)-4-(3-(methoxymethyl)pyrrolidin-1-yl)-5-methyl-2-(1-methyl-1H-imidazol-2-yl)thieno[2,3-d]pyrimidine]: the inhibition at 20 µM at KRas G12C mutant (setting [2]) was 76 to 100%; on KRas G12C mutant (setting [3]) it was 51 to 75%; at KRas G12D mutant (setting [4]) it was 76 to 100%; at KRas G12D mutant (setting [5]), 51 to 75%; at KRas Q61H mutant (setting [6]), 76 to 100%; on KRas Q61H mutant (setting [7]), 76 to 100%. Besides, the IC50 in series [1] (MIA PaCa-2, MIA PaCa-2) was in the range of 1 to 4.99 µM; in series [1] (setting [8]) it was 0.75 to 1 µM. In series [1], the inhibition at 10 µM fell in the range of 76 to 100%. Besides, in the series “Kinetic solubility assay”, the solubility (kinetic) at 2 h is greater than 400 µM.

Regarding `COC1CCCN(c2nc(-c3nccn3C)nc3sc(-c4ccn(C(C)C)n4)c(C)c23)C1` (racemic) [Compound 40, rac-6-(1-Isopropyl-1H-pyrazol-3-yl)-4-(3-methoxypiperidin-1-yl)-5-methyl-2-(1-methyl-1H-imidazol-2-yl)thieno[2,3-d]pyrimidine], the inhibition at 20 µM at KRas G12C mutant (setting [2]) lay within 76 to 100%; at KRas G12C mutant (setting [3]) it was 51 to 75%; at KRas G12D mutant (setting [4]), 26 to 50%; at KRas G12D mutant (setting [5]) it was 26 to 50%; on KRas Q61H mutant (setting [6]) it was 76 to 100%; at KRas Q61H mutant (setting [7]), 51 to 75%. In addition, the IC50 in series [1] (MIA PaCa-2, MIA PaCa-2) was less than 1 µM. Besides, the inhibition at 10 µM in series [1] lay within 76 to 100%. For the same compound, the kinetic solubility at 2 h in the series “Kinetic solubility assay” amounted to 82 µM.

For the compound `CO[C@H]1CC(Nc2nc(-c3nccn3C)nc3sc(-c4ccn(C(C)C)n4)c(C)c23)C[C@@H]1OC` (racemic) [Compound 44, rac-N-((3S,4S)-3,4-Dimethoxycyclopentyl)-6-(1-isopropyl-1H-pyrazol-3-yl)-5-methyl-2-(1-methyl-1H-imidazol-2-yl)thieno[2,3-d]pyrimidin-4-amine], the inhibition at 20 µM on KRas G12C mutant (setting [2]) was in the range of 76 to 100%; at KRas G12C mutant (setting [3]) it was 76 to 100%; on KRas G12D mutant (setting [4]) it was 76 to 100%; at KRas G12D mutant (setting [5]) it was 51 to 75%; on KRas Q61H mutant (setting [6]), 76 to 100%; on KRas Q61H mutant (setting [7]), 76 to 100%. This compound also gave an IC50 in series [1] (MIA PaCa-2, MIA PaCa-2) of 1 to 4.99 µM. Also, in series [1], the inhibition at 10 µM is 76 to 100%. Moreover, the solubility (kinetic) at 2 h in “Kinetic solubility assay” came to 76 µM.

For `COC[C@@H]1CC[C@@H]1CNc1nc(-c2nccn2C)nc2sc(-c3ccn(C(C)C)n3)c(C)c12` (racemic) [Compound 63, rac-6-(1-Isopropyl-1H-pyrazol-3-y)-N-(((1S,2R)-2-(methoxymethyl)cyclobutyl)methyl)-5-methyl-2-(1-methyl-1H-imidazol-2-yl)thieno[2,3-d]pyrimidin-4-amine], the inhibition at 20 µM at KRas G12C mutant (setting [2]) was in the range of 26 to 50%; on KRas G12C mutant (setting [3]), 26 to 50%; on KRas G12D mutant (setting [4]) it was 51 to 75%; on KRas G12D mutant (setting [5]), 51 to 75%; at KRas Q61H mutant (setting [6]) it was 26 to 50%; on KRas Q61H mutant (setting [7]), 51 to 75%. The IC50 was less than 1 µM in series [1] (MIA PaCa-2, MIA PaCa-2) and less than 0.4 µM in series [1] (setting [8]). Also, the inhibition at 10 µM in series [1] was 76 to 100%. In “Kinetic solubility assay”, the kinetic solubility at 2 h came out at 18 µM.

Take `CO[C@H]1CC[C@@H](Nc2nc(-c3ccccn3)nc3sc(-c4ccn(C(C)C)n4)c(C)c23)C1` (racemic) [Compound 69, Rac-6-(1-isopropyl-1H-pyrazol-3-yl)-N-((1R,3S)-3-methoxycyclopentyl)-5-methyl-2-(pyridine-2-yl)thieno[2,3-d]pyrimidin-4-amine]: the inhibition at 20 µM on KRas G12C mutant (setting [2]) is 51 to 75%; at KRas G12C mutant (setting [3]), 51 to 75%; on KRas G12D mutant (setting [4]), 51 to 75%; at KRas G12D mutant (setting [5]) it was 51 to 75%; on KRas Q61H mutant (setting [6]), 76 to 100%; on KRas Q61H mutant (setting [7]) it was 76 to 100%. The compound also gave an IC50 in series [1] (MIA PaCa-2, MIA PaCa-2) of 5 to 10 µM. Also, in series [1], the inhibition at 10 µM is 76 to 100%. For the same compound, the solubility (kinetic) at 2 h in “Kinetic solubility assay” amounted to 79 µM.

`COCCCNc1nc(-c2nccn2C)nc2sc(-c3ccn(C(C)C)n3)c(C)c12` [Compound 36, 6-(1-Isopropyl-1H-pyrazol-3-yl)-N-(3-methoxypropyl)-5-methyl-2-(1-methyl-1H-imidazol-2-yl)thieno[2,3-d]pyrimidin-4-amine]: the inhibition at 20 µM on KRas G12C mutant (setting [2]) lay in the range of 76 to 100%; at KRas G12C mutant (setting [3]) it was 76 to 100%; on KRas G12D mutant (setting [4]) it was 76 to 100%; on KRas G12D mutant (setting [5]), 51 to 75%; at KRas Q61H mutant (setting [6]), 76 to 100%; at KRas Q61H mutant (setting [7]), 76 to 100%. In addition, the IC50 in series [1] (MIA PaCa-2, MIA PaCa-2) is less than 1 µM. The inhibition at 10 µM in series [1] fell in the range of 76 to 100%. Also, in the series “Kinetic solubility assay”, the solubility (kinetic) at 2 h was 268 µM.

Turning to `COc1cc(Nc2nc(-c3nccn3C)nc3sc(-c4ccn(C(C)C)n4)c(C)c23)ncn1` [Compound 66, 6-(1-Isopropyl-1H-pyrazol-3-yl)-N-(6-methoxypyrimidin-4-yl)-5-methyl-2-(1-methyl-1H-imidazol-2-yl)thieno[2,3-d]pyrimidin-4-amine], the inhibition at 20 µM fell in the range of 26 to 50% on KRas G12C mutant (setting [2]); 26 to 50% at KRas G12C mutant (setting [3]); 51 to 75% at KRas G12D mutant (setting [4]); 76 to 100% on KRas G12D mutant (setting [5]); 26 to 50% on KRas Q61H mutant (setting [6]); 51 to 75% on KRas Q61H mutant (setting [7]). The concentration for half-maximal inhibition (IC50) in series [1] (MIA PaCa-2, MIA PaCa-2) is less than 1 µM. In series [1], the inhibition at 10 µM was 76 to 100%. In the series “Kinetic solubility assay”, the solubility (kinetic) at 2 h is 4 µM.

Take `CO[C@@H]1CC[C@H](Nc2nc(-c3nccn3C)nc3sc(-c4ccn(C(C)C)n4)c(-c4ccccc4)c23)C1` [Example 4, 6-(1-isopropyl-1H-pyrazol-3-yl)-N-((1S,3R)-3-methoxycyclopentyl)-2-(1-methyl-1H-imidazol-2-yl)-5-phenylthieno[2,3-d]pyrimidin-4-amine]: the inhibition at 20 µM lay in the range of 76 to 100% at KRas G12C mutant (setting [2]); 51 to 75% on KRas G12C mutant (setting [3]); 51 to 75% at KRas G12D mutant (setting [4]); 51 to 75% at KRas G12D mutant (setting [5]); 76 to 100% on KRas Q61H mutant (setting [6]); 51 to 75% on KRas Q61H mutant (setting [7]). Also, the IC50 at KRas Q61H mutant (with SOS) was 1 to 4.99 µM; in series [1] (MIA PaCa-2, MIA PaCa-2), less than 1 µM; in series [1] (setting [8]) it was less than 0.4 µM. In series [1], the inhibition at 10 µM is 76 to 100%. The solubility (kinetic) at 2 h in the series “Kinetic solubility assay” is 5 µM.
